Reference: ChEMBL document CHEMBL2429770, “Development of Mycobacterium tuberculosis whole cell screening hits as potential antituberculosis agents” (J Med Chem, 2013)

Test system: Mycobacterium tuberculosis
Assay: Antimycobacterial activity against Mycobacterium tuberculosis H37Rv
Assay type: functional

| Compound | MIC |
| --- | --- |
| COC(=O)c1nc(N)sc1Cc1ccccc1 | 0.06 µg/mL |
| Cc1ccc2nc(C)c(C(=O)NCc3cccs3)n2c1 | 0.19 µM |
| COc1ccc2nc(C)cc(OCC(=O)Nc3ccccc3OC)c2c1 | 0.7 µM |
| c1cc2c(s1)CCOC21CCN(Cc2ccc3c(c2)OCCO3)CC1 | 0.38 µM |
| Cc1cccc(-c2nc(Nc3ccncn3)c3c(C)csc3n2)n1 | 0.76 µM |
| Cc1sc(N)nc1C(=O)O | 0.06 µg/mL |
| CCCCCCCCCCN1CCCC(O/N=C2\[C@H](C)C[C@@](C)(OC)[C@H](O[C@@H]3O[C@H](C)C[C@H](N(C)C)[C@H]3O)[C@@H](C)C(=O)[C@@H](C)C(=O)O[C@H](CC)[C@@](C)(O)[C@H](O)[C@H]2C)C1 (some centres not stated) | 0.125 µM |
| O=C(NC12CC3CC(CC(C3)C1)C2)c1cc2cc(Cl)ccc2[nH]1 | 0.47 µM |
| CCc1ccc([C@@H]2C[C@H](C(F)(F)F)n3ncc(C(=O)NCc4ccc(OC)cc4)c3N2)cc1 | 0.25 µM |
| COc1ccc(CCNc2cc(-c3ccccc3)nc3ncnn23)cc1 | 0.94 µM |

Biological target: not listed separately
Assay: Inhibition of Mycobacterium tuberculosis PtpB

| Compound | Ki [nM] |
| --- | --- |
| O=P(O)(O)C(F)(F)c1ccc(-c2ccc(F)c(C(F)(F)F)c2)cc1C1CCCCC1 | 690 |
| O=C(O)c1cc(-c2ccc(-c3ccc(F)c(C(F)(F)F)c3)cc2C2CCCCC2)on1 | 220 |
